In one series the target is T1, cdc42 (Homo sapiens, UniProt P60953).
T1 construct: made in house
In words: Cdc42 GTP Binding Domain Inhibition Assay. The following applies: read-out: Cdc42: % inh. The method, boiled down: (§1)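 His-tagged cdc42 or Rheb (10–30 μg/mL) bound to nickel plates, then exposed to compound (20 μM, or serial dilutions for IC50) in 1% DMSO for 3 h at room temperature, ±Sos during final hour. Cy3- or Cy5-GTP (100 nM) added for 45 min; bound labelled GTP read by fluorescence after washes.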

The next series has as its target T2, Rheb (Homo sapiens, UniProt Q15382).
T2 construct: made in house
Nature of the series: Rheb GTP Binding Domain Inhibition Assay. The following applies: read-out: Rheb: % inh. The method, boiled down:
as §1

For series [1], the system named is BT-549 (expressing wild type KRAS). Nature of the series: Proliferation Assay (Cell Viability Assay). Conditions: Homo sapiens, BT-549; Proliferation assay, BT549; read-out: BT549 IC50 (nM) TNBC. Format: cell-based. An outline of the steps:
(§2)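 Cells plated at 2000–5000/well overnight, then treated 2–4 days at 37 °C, 5% CO2 with compound at 10 μM single dose or serial dilutions for IC50, in 0.3% DMSO and 10% FBS. Viability read by CellTiter 96 Aqueous One (MTS); % proliferation inhibition calculated from raw data.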

The subject of series [2] is NCI-H358 (expressing KRas G12C mutant). Nature of the series: Proliferation Assay (Cell Viability Assay). Format: cell-based. The following applies: Homo sapiens; Proliferation assay, NCI-H358; read-out: NCI-H358 IC50 (nM) NSCLC. The method, boiled down: as §2
Series [3] in a line: Kinetic Solubility Assay in pH 7.4 Buffer + 2% DMSO. Format: physicochemical. Conditions: phosphate-buffered saline pH 7.4 with 2% DMSO, aqueous buffer, kinetic from dmso stock, 25° C., two hours. An outline of the steps: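 Compound from 20 mM DMSO stock diluted to nominal 400 μM in PBS pH 7.4 with 2% DMSO, in duplicate, shaken 2 h at 25° C., then filtered. Filtrate quantified by UV absorbance (230-550 nm) against 10-200 μM calibration curves; effective range ~2-400 μM.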

Molecules are shown by their SMILES. Some results are limits rather than exact numbers.

T2 sequence (Q15382 whole entry): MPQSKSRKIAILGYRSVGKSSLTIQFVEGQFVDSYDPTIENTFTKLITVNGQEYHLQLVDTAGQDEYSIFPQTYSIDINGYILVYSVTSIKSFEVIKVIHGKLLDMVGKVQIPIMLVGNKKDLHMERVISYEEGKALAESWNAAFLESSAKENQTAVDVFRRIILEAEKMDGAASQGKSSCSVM
T1 sequence (P60953 whole entry): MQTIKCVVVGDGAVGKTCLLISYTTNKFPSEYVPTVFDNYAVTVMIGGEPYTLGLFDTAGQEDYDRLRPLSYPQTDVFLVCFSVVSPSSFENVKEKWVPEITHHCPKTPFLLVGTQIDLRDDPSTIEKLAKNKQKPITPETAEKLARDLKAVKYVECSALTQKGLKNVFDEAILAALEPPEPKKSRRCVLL

In the case of `COCCO[C@H]1C[C@H](Nc2nc(-c3nccn3C)nn3cc(-c4ccn(C(C)C)n4)c(C)c23)C1` [Compound 92, 6-(1-Isopropyl-1H-pyrazol-3-yl)-N-((1r,3r)-3-(2-methoxyethoxy)cyclobutyl)-5-methyl-2-(1-methyl-1H-imidazol-2-yl)pyrrolo[2,1-f][1,2,4]triazin-4-amine], the inhibition at 20 µM is 1 to 25% on cdc42 and 0% at Rheb.
As for `Cc1c(-c2ccn(C(C)C)n2)cn2nc(-c3nccn3C)nc(Nc3ccn(C4CC4)n3)c12` [Compound 84, N-(1-Cyclopropyl-1H-pyrazol-3-yl)-6-(1-isopropyl-1H-pyrazol-3-yl)-5-methyl-2-(1-methyl-1H-imidazol-2-yl)pyrrolo[2,1-f][1,2,4]triazin-4-amine], the IC50 in series [1] and in series [2] was 1 to 10 nM throughout. In series [3], the solubility at 2 h lay within 10 to 30 µM.
With `Cc1c(-c2ccn(C(C)C)n2)cn2nc(-c3nccn3C)nc(Nc3noc(C4CC4)n3)c12` [Compound 75, 5-Cyclopropyl-N-(6-(1-isopropyl-1H-pyrazol-3-yl)-5-methyl-2-(1-methyl-1H-imidazol-2-yl)pyrrolo[2,1-f][1,2,4]triazin-4-yl)-1,2,4-oxadiazol-3-amine], the inhibition at 20 µM at cdc42 and on Rheb was 1 to 25% in each case.
As to `COc1cccc(-c2cn3nc(-c4nccn4C)nc(N[C@@H]4CC[C@@H](OC)C4)c3c2-c2ccccc2)c1Cl.Cl` (racemic) [Compound 34, rac 6-(2-Chloro-3-methoxyphenyl)-N-((1R,3R)-3-methoxycyclopentyl)-2-(1-methyl-1H-imidazol-2-yl)-5-phenylpyrrolo[2,1-f][1,2,4]triazin-4-amine hydrochloride], the values for the inhibition at 20 µM at cdc42 and on Rheb were 1 to 25% and 26 to 49%, respectively.
For the compound `Cc1c(-c2ccn(C(C)C)n2)cn2nc(-c3nccn3C)nc(Nc3cc4n(n3)CCO4)c12` [Compound 91, N-(6-(1-Isopropyl-1H-pyrazol-3-yl)-5-methyl-2-(1-methyl-1H-imidazol-2-yl)pyrrolo[2,1-f][1,2,4]triazin-4-yl)-2,3-dihydropyrazolo[5,1-b]oxazol-6-amine], the IC50 in series [1] and in series [2] was 1 to 10 nM throughout. In series [3], the solubility at 2 h was above 30 µM.

One may read the IC50 as the concentration that inhibits the measured activity by half. As a reminder, the solubility is the dissolved amount per volume that the medium holds.

For the origin of these results see US12459951B2, “Compounds that interact with RAS superfamily proteins for treatment of cancers, inflammatory diseases, rasopathies, and fibrotic disease” (SHY Therapeutics, LLC, priority 2022, dated 2025).
